Assay results: patent US9518104B2, “Compositions and methods for treating multiple sclerosis” (Centre for Addiction and Mental Health, priority 2012, dated 2016)
Where no end group is shown, it is not given here.

Columns and labels:
Iba1+ cells = assay: Iba1 immunolabeling of macrophages/microglia in EAE mouse spinal cord; assay type: in vivo; settings: EAE mice; compared to sham
Method: (§1) Frozen coronal sections of EAE mice spinal cord (10 μm) thickness were cut using a microtome cryostat system (Bright Instruments 5030). All sections were initially incubated in blocking solution (0.1 m PBS, 1% Triton X-100, 0.5% Tween 20, 2% skim milk) or serum-free protein block (Dako Cytomation) for 1 h at room temperature to reduce nonspecific background and then incubated with primary and secondary antibodies overnight at 4° C. The following primary antibodies were used: anti-Iba1 (1:200; Dako), anti-Neurofilament H (1:200), anti-CC1, anti-CNPase (1:200), and anti-NeuN (1:200). Fluorescent secondary antibodies conjugated to Alexa 488 or Rhodamine Red-X (1:200; Invitrogen) or Cy3 (1:100; Jackson ImmunoResearch Laboratories) were used for detection of primary antibodies.
As MS is closely associated with inflammation and autoimmunity, the TAT-G-Gpep peptide was tested to determine if it affects microglial/macrophage recruitment.

myelin = assay: Luxol Fast Blue staining of myelin in EAE mouse spinal cord; assay type: in vivo; settings: EAE mice spinal cord; compared to sham
Method: At day 30, mice were sacrificed by overdose anesthesia, and the spinal cord was dissected for co-immunoprecipitation analysis. For analysis of central nervous system infiltrates, brain and spinal cord tissues were collected and mononuclear cells were prepared by Percoll gradient centrifugation. For immunological analysis, splenocytes cells were dissected and cultured in vitro. For histological analysis, the same tissue samples were immediately fixed in 4% (wt/vol) paraformaldehyde. Frozen sections of spinal cord were stained with Luxol fast blue for analysis of […].

neurofilament-H = assay: Neurofilament-H immunostaining, axonal density in EAE mouse spinal cord; assay type: in vivo; settings: EAE mice spinal cord; compared to sham
Method: as §1

oligodendrocytes = assay: CNPase- and CC1-labeled oligodendrocytes in EAE mouse spinal cord; assay type: in vivo; settings: EAE mice, dorsal regions of spinal cord; compared to sham
Method: as §1

EAE in rats = settings: direct application (Smith et al.); cited from earlier work
EAE mice = EAE mice (Fazio et al. 2008); cited from earlier work
GAPDH = biological target: T1, GAPDH (Rattus norvegicus, UniProt P04797); assay: Pull-down affinity assay of GluR2-GAPDH interaction; assay type: binding; settings: solubilized rat hippocampal tissue, approximately 100 μg GST-fusion protein
T1 construct: Rat hippocampus was homogenized in 50 mM Tris-HCl (pH 7.5); from tissue; host or cells: rat hippocampus homogenate
T1 sequence (P04797 whole entry, the tested form may be a part): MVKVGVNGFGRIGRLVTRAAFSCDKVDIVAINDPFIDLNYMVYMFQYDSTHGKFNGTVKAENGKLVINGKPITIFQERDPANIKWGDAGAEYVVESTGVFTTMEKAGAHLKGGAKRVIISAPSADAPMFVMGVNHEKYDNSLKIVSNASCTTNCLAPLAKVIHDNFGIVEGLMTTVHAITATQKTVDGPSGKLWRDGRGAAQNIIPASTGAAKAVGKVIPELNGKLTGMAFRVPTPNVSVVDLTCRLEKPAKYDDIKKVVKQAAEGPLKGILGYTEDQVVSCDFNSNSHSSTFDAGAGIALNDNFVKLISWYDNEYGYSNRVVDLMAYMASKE
Method: Desired DNA sequences of the GluR2 N-terminus were obtained by polymerase chain reaction. The DNA sequences were digested with BamHI and Xhol enzymes to create sticky ends and subsequently incorporated into GST-plasmids (pGEX4T3) through DNA ligation. Following ligation, transformation with DH5a competent cells was performed to amplify the plasmid content. Subsequently, the plasmids were extracted and subjected to sequence confirmation. Having the desired DNA sequences confirmed, the GST-fusion proteins were expressed through the transformation with another strain of competent cells (i.e. BL21). The GST-fusion proteins were then precipitated and purified through glutathione resin (from Genescript).
Rat hippocampus was homogenized in 50 mM Tris-HCl (pH 7.5), 150 mM NaCl, 1% NP-40, 0.5% sodium deoxycholate, 1 mM EDTA, 10% Triton X-100, 1 mM PMSF and protease inhibitor cocktail (Sigma, 5 microl per 100 mg tissue). The hippocampal tissue was further solubilized with 1% Triton X-100 and then centrifuged at 14,000 rpm at 4° C. for 15 mins The solubilized hippocampal tissue (approximately 1 milligram of protein) was incubated with glutathione resin (Genescript) and indicated GST-fusion proteins (approximately 100 μg) at 4° C. overnight and followed by an hour of incubation at room temperature. After the incubation, the samples were washed 4-6 times with 1 mL PBS contained 0.1% Triton X-100. […]

EAE = settings: Shijie et al. 2009; cited from earlier work
GluR2-GAPDH interaction = settings: previously shown (PCT/CA2007/001539); cited from earlier work
GluR2-GAPDH interaction, sequence (P04406 whole entry, the tested form may be a part): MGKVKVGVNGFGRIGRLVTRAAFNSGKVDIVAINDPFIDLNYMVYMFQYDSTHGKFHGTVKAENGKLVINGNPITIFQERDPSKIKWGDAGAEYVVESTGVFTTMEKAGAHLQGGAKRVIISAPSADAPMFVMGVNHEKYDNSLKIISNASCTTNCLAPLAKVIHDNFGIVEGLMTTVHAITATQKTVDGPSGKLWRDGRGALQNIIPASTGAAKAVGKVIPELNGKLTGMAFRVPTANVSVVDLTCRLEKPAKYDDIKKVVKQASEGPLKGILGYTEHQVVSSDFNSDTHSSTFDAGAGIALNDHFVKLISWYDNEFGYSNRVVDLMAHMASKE

cytokines = assay: Bioplex, cytokine profiles in cultured spleenocytes re-stimulated with MOG35-55; assay type: in vivo, mice; settings: vs the other two groups
Method: Cytokine measurement was performed by Bioplex Protein Array (Bio-Plex Pro™ Mouse Cytokine 23-plex Assay) from Bio-Rad as per manufacturer's instruction. EAE mice serum, culture supernatant of spleenocytes in different treatment groups and supernatant of brain infiltrated leukocyte culture were used for bioplex protein array in duplicates. The standard curves were optimized automatically by the software (Bioplex manager) and verified manually. The Bioplex manager software was used to calculate cytokine concentrations. Data is expressed as Mean±SEM.

hippocampal neurons = settings: animal models of ischemic stroke; previously shown (PCT/CA2007/001539); cited from earlier work
inflammation = settings: EAE (Pitt et al.); cited from earlier work
activated T-cells = settings: Pitt et al.; cited from earlier work

Compound: YGRKKRRQRRRAFDLSQYDLKWQVDYLKYDYGTASELRASA (G-Gpep-sc or G-Gpep-scrambled) [TAT-G-Gpep-sc, scrambled G-Gpep control peptide fused to TAT domain]
- number of Iba1+ cells in the dorsal and ventral horns (Iba1+ cells): significantly more macrophages/microglia
- demyelination (myelin in the ventral funiculus) (myelin): Significant demylenation
- area occupied by neurofilament-H (neurofilament-H): significantly lower
- number of CNPase- and CC1-labeled oligodendrocytes (oligodendrocytes): significantly lower

Compound: O=c1[nH]c2cc(C(F)(F)F)c(N3CCOCC3)cc2n(CP(=O)(O)O)c1=O [MPQX]
- acute and chronic neurological effects of EAE (EAE in rats): reduces the acute and chronic neurological effects of EAE

Compound: O=C(Nc1nc(C(F)(F)F)co1)C1c2ccccc2Oc2ccccc21 [RO0711401]
- motor coordination (EAE mice): improves motor coordination

Compound: GST-Fragment 2: GST fusion protein of fragment 2, Asp153-Lys172 of GluR2 N-terminus, DSDRGLSTLQAVLDSAAEKK (SEQ ID NO:5) (also: GST fusion protein)
- precipitation (pull down) of GAPDH (GAPDH): able to precipitate GAPDH

Compound: GST alone: glutathione S-transferase alone, negative control
- precipitation (pull down) of GAPDH (GAPDH): neither the GST alone nor the GST-fusion protein containing fragment 1 (Tyr142-Leu161 (SEQ ID NO:7)) sufficed to “pull down” GAPDH

Compound: [N-]=[N+]=CC(=O)CC[C@H](N)C(=O)O [DON, 6-diazo-5-oxo-L-norleucine]
- neurological effects of EAE (EAE): attenuated

Compound: YYQWDKFAYLYDSDRGLSTLQAVLDSAAEKK (GluR2 NT1-3-2) [G-Gpep, interfering peptide, GluR2 NT1-3-2 (Y142-K172)]
- disruption of GluR2-GAPDH interactions (GluR2-GAPDH interaction): capable of disrupting GluR2-GAPDH interactions
- immunoreactivity of spleenocytes (most cytokines) (cytokines): significantly suppressed
- protection of neurons from ischemia-induced cell death (hippocampal neurons): protecting neurons from ischemia-induced cell death

Compound: NS(=O)(=O)c1cccc2c1c([N+](=O)[O-])cc1nc(O)c(O)nc12 [NBQX]
- amount of inflammation (inflammation): did not reduce
- acute and chronic neurological effects of EAE (EAE in rats): reduces the acute and chronic neurological effects of EAE
- in vitro proliferation of activated T-cells (activated T-cells): did not reduce

Compound: CC1(C)[C@@H](OC(=O)CCC(=O)O)CC[C@]2(C)[C@H]3C(=O)C=C4[C@@H]5C[C@@](C)(C(=O)O)CC[C@]5(C)CC[C@@]4(C)[C@]3(C)CC[C@@H]12 [carbenoxolone]
- neurological effects of EAE (EAE): attenuated
